Article PMC9947563, “Identification of the molecular determinants of antagonist potency in the allosteric binding pocket of human P2X4” (Frontiers in Pharmacology, 2023)
Changes are numbered by the printed parent chain.

What was measured:
[1] = biological target: T1, human P2X4 wild type (h4-WT) (Homo sapiens, UniProt Q99571); assay: ATP-induced calcium influx (Fluo-4) in 1321N1 cells stably expressing human P2X4 wild type; type: cell-based; settings: human vs rat P2X4
T1 construct: expressed in transfected cells; host or cells: 1321N1 astrocytoma cells, stably transfected
T1 sequence (Q99571 1-388): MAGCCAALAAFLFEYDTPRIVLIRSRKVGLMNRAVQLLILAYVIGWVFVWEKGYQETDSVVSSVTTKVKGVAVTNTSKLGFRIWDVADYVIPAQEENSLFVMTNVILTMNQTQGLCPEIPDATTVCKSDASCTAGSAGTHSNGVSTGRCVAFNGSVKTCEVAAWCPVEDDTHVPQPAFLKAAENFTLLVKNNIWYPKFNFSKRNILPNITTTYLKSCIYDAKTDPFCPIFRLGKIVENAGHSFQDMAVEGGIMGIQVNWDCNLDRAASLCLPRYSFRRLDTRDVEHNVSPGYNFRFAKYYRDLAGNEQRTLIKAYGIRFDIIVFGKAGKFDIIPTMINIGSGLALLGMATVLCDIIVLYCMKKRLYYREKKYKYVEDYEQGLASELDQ
Procedure: (§1) 1321N1 astrocytoma cells were cultured (at 37°C, 5% CO2) in Dulbecco’s modified Eagle’s medium (DMEM/F-12 with Glutamax) supplemented with 10% foetal bovine serum (FBS) and 200 unit/mL of penicillin and streptomycin antibiotics (Fisher Scientific). Stably transfected clones were grown in DMEM/F-12 with Glutamax medium supplemented with G-418 (Geneticin®, Fisher Scientific), 600 μg/mL and 150 μg/mL during selection and maintenance, respectively. […] Each cell line was then tested for P2X4 receptor expression by Western blot and for functionality using the Ca^2+ influx assay.
(§2) Cells were plated the day before assay into poly-lysine-coated 96-well plates at 40–55,000 cells/mL. […] Prior to assay, buffer was replaced with fresh modified Ringer’s buffer containing probenecid but not the dye. […] A Fluoroskan Ascent FL plate reader (Fisher Scientific) equipped with a solution dispenser and an appropriate filter pair (excitation: 485 nm, emission: 538 nm) was used to record 5-s baseline followed by P2X4-mediated calcium influx measurements for 20–25 s after ATP stimulation (final concentration ranging between 0.03 and 100 μM in buffered solution, pH = 7.4). The collected responses were normalized to the first data-point recorded after ATP injection.
(§3) Data processing and data analysis were carried out using Graphpad Prism version 6 for Mac. Figures are presented as Mean ± SEM. […] When comparing data obtained from multiple independent experiments (N), each dataset was normalized to the mean value obtained for the vehicle control.

[2] = biological target: T2, rat P2X4 wild type (r4-WT) (Rattus norvegicus, UniProt P51577); assay: ATP-induced calcium influx (Fluo-4) in 1321N1 cells stably expressing rat P2X4 wild type; type: cell-based
T2 construct: expressed in transfected cells; host or cells: 1321N1 astrocytoma cells, stably transfected
T2 sequence (P51577 1-388): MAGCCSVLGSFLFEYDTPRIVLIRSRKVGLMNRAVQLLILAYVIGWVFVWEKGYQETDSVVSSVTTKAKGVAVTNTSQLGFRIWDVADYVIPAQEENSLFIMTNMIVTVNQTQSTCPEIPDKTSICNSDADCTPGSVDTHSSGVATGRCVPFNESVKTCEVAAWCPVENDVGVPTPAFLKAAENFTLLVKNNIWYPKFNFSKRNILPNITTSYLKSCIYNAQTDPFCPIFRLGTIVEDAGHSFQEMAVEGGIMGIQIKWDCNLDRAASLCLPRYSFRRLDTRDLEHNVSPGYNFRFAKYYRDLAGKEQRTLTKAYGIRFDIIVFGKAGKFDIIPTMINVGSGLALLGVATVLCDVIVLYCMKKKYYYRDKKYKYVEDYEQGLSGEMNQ
Procedure: 1321N1 astrocytoma cells were cultured (at 37°C, 5% CO2) in Dulbecco’s modified Eagle’s medium (DMEM/F-12 with Glutamax) supplemented with 10% foetal bovine serum (FBS) and 200 unit/mL of penicillin and streptomycin antibiotics (Fisher Scientific). Stably transfected clones were grown in DMEM/F-12 with Glutamax medium supplemented with G-418 (Geneticin®, Fisher Scientific), 600 μg/mL and 150 μg/mL during selection and maintenance, respectively. FuGene HD Transfection Reagent (Promega) was used according to the manufacturer’s protocol for the generation of stable cell line expressing h4-WT, r4-WT, h4-I312T, and r4-T312I. Each cell line was then tested for P2X4 receptor expression by Western blot and for functionality using the Ca^2+ influx assay.
Cells were plated the day before assay into poly-lysine-coated 96-well plates at 40–55,000 cells/mL. To load cells with calcium-sensitive fluorescent dye, culture medium was replaced with modified Ringer’s buffer (140 mM NaCl, 10 mM HEPES, 10 mM Glucose, 1 mM MgCl2, 1 mM CaCl2, 2.5 mM KCl, 0.5% BSA, pH = 7.4) containing 2.6 μM FLUO4-AM (Fisher Scientific) and 250 μM probenecid (Sigma), and cells were incubated for 20–30 min. Prior to assay, buffer was replaced with fresh modified Ringer’s buffer containing probenecid but not the dye. […] A Fluoroskan Ascent FL plate reader (Fisher Scientific) equipped with a solution dispenser and an appropriate filter pair (excitation: 485 nm, emission: 538 nm) was used to record 5-s baseline followed by P2X4-mediated calcium influx measurements for 20–25 s after ATP stimulation (final concentration ranging between 0.03 and 100 μM in buffered solution, pH = 7.4). The collected responses were normalized to the first data-point recorded after ATP injection.
Data processing and data analysis were carried out using Graphpad Prism version 6 for Mac. Figures are presented as Mean ± SEM. Statistical significance of any difference observed between samples was calculated through one-way ANOVA followed by Dunnett’s multiple comparisons test with a single pooled variance (control, unless otherwise specified) or, when comparing only two sets of data, using an unpaired t-test with Welch’s correction. When comparing data obtained from multiple independent experiments (N), each dataset was normalized to the mean value obtained for the vehicle control.

[3] = biological target: T3, human P2X4 I312T (h4-I312T) (Homo sapiens, UniProt Q99571, I312T); assay: ATP-induced calcium influx (Fluo-4) in 1321N1 cells stably expressing human P2X4 I312T; type: cell-based
T3 construct: expressed in transfected cells; host or cells: 1321N1 astrocytoma cells, stably transfected
T3 sequence (Q99571 1-388 I312T): T1 sequence (Q99571 1-388) with I312T
Procedure: Plasmid encoding rat P2X4 (r4-WT) ([Royle et al., 2005]) was a kind gift from Ruth Murrell-Lagnado, whilst that encoding human P2X4 with a C-terminal (His)10 tag has been reported previously ([Young et al., 2008]).
as §1, §2, §3

human P2X4 open channel = system: human P2X4 open channel; parameters: method as in Bidula et al. (2022); settings: ref Bidula et al. (2022); cited from earlier work

CC(C)c1cc(Br)c(NC(=O)Nc2cccnc2)c(Br)c1 [BX430]
potency at human P2X4 compared with the rat isoform [1]: approximately 30 fold | IC50 [2]: 66.1 µM | Hill coefficient (BX-430 inhibition curve) ([2]; rat P2X4 WT, 1 µM ATP): 1.441 | decrease in BX-430 potency by I312T mutation in human P2X4 ([3]; human P2X4 I312T vs human P2X4 WT): > 48 fold | Hill coefficient (BX-430 inhibition curve) ([3]; human P2X4 I312T, 1 µM ATP): 2.057 | capability of blocking the open channel (human P2X4 open channel): capable of blocking the open channel
